In US20070117182A1, “Nucleic acids conferring transcriptional responsiveness on the RANKL gene promoter and uses thereof” (Wisconsin Alumni Research Foundation, priority 2005, published 2007):

Tests used:
RANKL = test: RT-PCR of RANKL in MG-63 cells; assay type: cell-based, human
Experimental: FIG. 14. […] Cells were treated with the indicated inducers for the periods identified and isolated RNA subjected to PCR analysis for Cyp24, RANKL and b-actin. B) 1,25(OH)2D3 induces VDR binding to the conserved D5 region of the human RANKL gene in MG-63 cells. […] Two different primer sets to the human D5 region were used to assess VDR binding. VDR binding was also observed at D3-D1 but not in intervening regions or at the TSS. C) The human D5 region is transcriptionally active in MG-63 cells. […] Luciferase activity was analysed 24 hours later. […] Data are the average of triplicate determinations, SEM.
The isolated RNA was then subjected to RT-PCR analysis using primers to a control gene (β-actin), a known vitamin D induced gene (Cyp24) and RANKL. […] These and additional data using other hormonal regulators are identical to that observed in mouse cells and it therefore appears likely that human RANKL is regulated in a fashion similar to that in mouse.

[1] = test system: RANKL gene upstream regions D1-D5; test: ChIP analysis of transcription factor binding to the RANKL gene in ST2 cells; assay type: cell-based, mouse; conditions: 6 hours
Experimental: FIG. 4. Confirmation of ChIP/chip data using ChIP. A) Linear arrangement of RANKL locus re-oriented 5′ to 3′ (left to right) indicating the positions of D5 to D1, P2, and P1/TSS. Designation of primer sets used for detection in ChIP is indicated. B) ST2 cells were treated with either vehicle or 1,25(OH)2D3 and then subjected to ChIP using antibodies to VDR, RXR or IgG. Precipitated DNA was evaluated using the primer sets identified in A.
FIG. 5. […] ST2 cells were treated with the above hormones and after 6 hours subjected to ChIP analysis using antibodies to VDR, RXR, GR, C/EBP, β, RNA pol II, and IgG. Precipitated DNA was evaluated for enrichment of the indicated regions of the RANKL gene.
FIG. 10. ChIP analysis of transcription factor binding to RL D5, the TSS and intervening regions of the RANKL locus in response to 1,25(OH)2D3, forskolin and oncostatin M (OSM). ST2 cells were treated for 6 hr with the indicated inducing agents and then subjected to ChIP analysis using antibodies to the indicated factors. Precipitated DNA was analyzed by PCR for enrichment of IS7, D5, IS6 and the TSS of the RANKL gene locus. See text for details of results.
The isolated DNA was then evaluated by PCR using primers as depicted in the diagram seen in FIG. 4a which were designed to amplify small DNA segments within the 5 regions as well as segments located at intervening sites (IS) outside the five regions.
The inventors hypothesized that GC's might perhaps enhance VDR binding to RANKL regulatory regions. […] The inventors focused on the RL-CCL region (D5) and amplified the precipitated DNA using primers to this region of the gene as well as to D4, D3 and TSS and intervening regions. […] The inventors also explored the possibility that C/EBPbeta might similarly participate in the RANKL activation process. C/EBPbeta plays a significant role in the regulation of osteoblastic genes, and is found associated with both 1,25(OH)2D3 and GC target genes.
In addition to 1,25(OH)2D3 and GCs, RANKL expression is also known to be modulated by such factors as PTH, PGE2, the gp130-activating cytokines IL-6 and OSM, as well as IL-1beta and TNFalpha. […] Forskolin was used as substitute for PTH, however, as ST2 cells are deficient in PTH receptor (PTHR). Both PTH/forskolin and PGE2 are known to induce RANKL gene expression via CREB whereas OSM functions via Stat3. […] The inventors therefore explored the possibility that the RL-CCL might represent a focal target for these inducers via either CREB or Stat3 in the RANKL gene locus. ST2 cells were treated with either vehicle, 1,25(OH)2D3, forskolin or OSM for a 6 hour period and then subjected to a ChIP analysis using antibodies to VDR, C/EBPbeta, CREB, phospho-CREB, ATF-2, ATF-4, Stat3, RNA pol II and control IgG. Isolated DNA was then subjected to amplification using primers corresponding to the D5 region (RL-CCL) of the RANKL gene. As controls, the inventors also assessed the extent to which the immunoprecipitations led to the enrichment of DNA at sites surrounding the D5 region of the RANKL gene.

[2] = test system: D1-D4 regions of the RANKL gene; test: pTK-RL(D1)-(D4) luciferase reporters in ST2 cells; assay type: cell-based, mouse
Experimental: FIG. 12. Transcriptional activities of the D1-D4 regions of the RANKL gene in the context of the TK promoter were analyzed and corresponding data is shown in FIG. 12. The D1-D4 regions of the RANKL gene were cloned into the pTK vector and termed PTK-RL(D1)-(D4). […] Cells were harvested after 24 hours and luciferase activity assessed. Luciferase was normalized using beta-gal activity. Data in FIG. 12 represent the mean of triplicate determinations (SEM).
The activity of an enhancer must be evaluated in the context of its local environment, preferentially in the context of both other enhancers and its native promoter. In the case of the RANKL gene, however, this is clearly not possible due to the numbers and the distant locations of the potential regulatory regions. […] To ensure that the viral TK promoter background was not contributing to our evaluation, the inventors cloned the mouse RANKL promoter (−100 to +65) into pGL3, inserted RL D5 and evaluated its activity in ST2 cells as well.
Transcriptional activities of the D1-D4 regions of the RANKL gene in the context of the TK promoter were analyzed and corresponding data is shown in FIG. 12. […] Cells were harvested after 24 hours and luciferase activity assessed. […]

For `C=C1/C(=C\C=C2/CCC[C@]3(C)[C@@H]([C@H](C)CCCC(C)(C)O)CC[C@@H]23)C[C@@H](O)C[C@@H]1O` [1,25(OH)2D3], the “RANKL expression (RT-PCR)” value (RANKL) was “upregulated”, the “CREB binding to the D5 region” value [1] was “modestly increased CREB association” and the “RNA pol II recruitment to D1-D5 sites and TSS” value [1] was “recruited”. For the same compound, the “Stat3 binding to the D5 region” value [1] was “some Stat3 binding can be seen”, the “VDR and RXR binding at D1-D5” value ([1]; ChIP, -16, -22, -60, -69, -77 kb from TSS) was “clearly enriched” and the “VDR binding to RANKL regulatory regions (D5)” value ([1]; agent alone) was “induced the binding of the VDR”. For the same compound, the “luciferase activity of regions D1 through D4” value ([2]; increasing concentrations, no added VDR) was “failed to show increased activity” and the “response from D2 and D3” value ([2]; with exogenous VDR expression vector) was “modest response”.
